Where two headings read alike, the source gives them in different places. Where no end group is shown, it is not given here.
Tests used:
S. pneumoniae = assay type: cell-based, Streptococcus pneumoniae; settings: for Overall EP: proportion of the 60 pneumococcal isolates inhibited within the MIC range
Description: (§1) All bacterial strains were obtained from Department of Medical Microbiology, University of Malaya. Clinical isolates were previously obtained from University of Malaya Medical Centre and maintained in the laboratory. Sheep blood agar was used for pneumococcal cultivation purpose. Nutrient agar was used for cultivating E. coli ATCC 25922, S. aureus ATCC 25923, and P. aeruginosa ATCC 15442, Acinetobacter baumanii ATCC 15308, and one clinical isolate for each MRSA, E. cloacae, Citrobacter spp., and K. pneumoniae. For antimicrobial testing, Mueller-Hinton agar (MHA) and cationically-adjusted MHB (CAMHB) were prepared according to the Clinical and Laboratory Standard Institute guidelines. MHA for S. pneumoniae was supplemented with 5% (v/v) defibrinated sheep blood and 5% laked horse blood for CAMHB. All bacterial cultures were stored in multiple vials in brain heart infusion broth supplemented with 10% (v/v) glycerol at −80°C to avoid repeated freeze-thawed cycles on the cells. All freeze-stocked strains were passaged twice prior to experimentation.
(§2) Procedures were performed to determine the MIC of peptides according to the CLSI guidelines[21] against 60 pneumococcal isolates which consisted of 20 isolates each for PRSP, PISP, and PSSP. Strains were grown for 18–24 hrs at 37°C under 5% CO2. Direct suspension of the colonies were made in CAMHB and adjusted to OD625 0.08–0.1 which corresponds to 1 ~ 2 × 10^8 CFU/ml followed by serial ten-fold dilutions to give 1 × 10^6 CFU/ml. Fifty microliters of bacterial suspension was then aliquoted to 96-well round bottom microtiter plates containing equal volume of serially diluted peptides to give final concentrations of peptides encompassing the range of 1.96–250 μg/ml. […] The plates were incubated for 18–24 hrs at 37°C under 5% CO2. MIC was read as the concentration of peptide producing complete inhibition on the visible growth of the test organism. Results were pooled from three independent experiments. MIC range was defined as the range of concentrations where the peptides produce detectable antimicrobial activity. Effective percentage (EP) was the proportion of pneumococcal isolates inhibited within the MIC range. Since the isolates tested were obtained prior to 2008 where major revision in antibiotic susceptibility breakpoints were introduced, thus the pneumococci were defined according to the PEN susceptibility breakpoint (prior 2008) which corresponds to the PEN (oral penicillin V) breakpoint of the revised criteria.

[1] = test system: penicillin-intermediate S. pneumoniae (PISP); assay type: cell-based, Streptococcus pneumoniae; settings: for MIC, PISP: MIC range over 20 PISP isolates, CLSI broth microdilution, CAMHB with 5% laked horse blood, 18–24 hrs 37°C 5% CO2, peptides 1.96–250 μg/ml, three independent experiments; for EP %, PISP: effective percentage: proportion of isolates inhibited within the MIC range
Description: as §1, §2

[2] = test system: penicillin-susceptible S. pneumoniae (PSSP); assay type: cell-based, Streptococcus pneumoniae; settings: for MIC, PSSP: MIC range over 20 PSSP isolates, CLSI broth microdilution, CAMHB with 5% laked horse blood, 18–24 hrs 37°C 5% CO2, peptides 1.96–250 μg/ml, three independent experiments; for EP %, PSSP: effective percentage: proportion of isolates inhibited within the MIC range
Description: as §1, §2

MRSA = assay type: cell-based, methicillin-resistant S. aureus
Description: as §1, §2
(§3) The broad spectrum antibacterial activity of the peptides against a panel of eight clinically important bacteria was also determined, this includes S. aureus ATCC 25923, E. coli ATCC 25922, P. aeruginosa ATCC 15442, A. baumanii ATCC 15308, and one clinical isolate each for MRSA, E. cloacae, Citrobacter spp., and K. pneumoniae.

Citrobacter spp. = assay type: cell-based; settings: Gram-negative, clinical isolate; broth microdilution, CAMHB, peptides 1.96–250 μg/ml
Description: as §1, §2, §3

E. coli ATCC 25922 = assay type: cell-based
Description: as §1, §2, §3

P. aeruginosa ATCC 15442 = assay type: cell-based
Description: as §1, §2, §3

S. aureus ATCC 25923 = assay type: cell-based
Description: as §1, §2, §3

[3] = test system: multiple gram-positive and gram-negative bacteria; assay type: cell-based; settings: range: DM3 against seven bacteria; DM4 and DM5 apart from higher MICs against E. cloaceae, K. pneumoniae, S. aureus
Description: as §1, §2, §3

PISP = assay type: cell-based, Streptococcus pneumoniae
Procedure: (§4) This assay was performed to evaluate the killing kinetics of peptides. One PRSP, PISP, and PSSP isolate were each grown and prepared to 5 × 10^6 CFU/ml. Each isolate in CAMHB was challenged with peptides at two times the respective MIC values. At the indicated time intervals (0, 30, 60, 120, 150, 180, 210, and 240 min; “0” indicate pretreatment), 10 μl of suspension was removed and immediately serially diluted in cold phosphate-buffered saline to arrest further reaction before spread-plated on MHA to obtain viable colony counts. The percentage cell recovered was calculated by dividing the surviving CFU of the treated cells over the surviving CFU of the untreated control cells at the respective time points. Results were pooled from three independent experiments and expressed as mean ± standard deviation (SD).

PRSP, PISP, and PSSP = assay type: cell-based, Streptococcus pneumoniae
Procedure: as §4

PRSP = assay type: cell-based, Streptococcus pneumoniae
Procedure: as §4

PSSP = assay type: cell-based, Streptococcus pneumoniae
Procedure: as §4

[4] = Gram-negative, broth microdilution, CAMHB, peptides 1.96–250 μg/ml

GLFDIWKWWRWRR-NH2 [DM3]
Overall MIC (S. pneumoniae): 7.81 to 62.5 mg/L
Overall EP (S. pneumoniae): 100.0%
MIC, PISP [1]: 7.81 to 62.5 mg/L
EP %, PISP [1]: (100.0) %
MIC, PSSP [2]: 7.81 to 62.5 mg/L
EP %, PSSP [2]: (100.0) %
MIC, MRSA (MRSA; methicillin-resistant): 7.81 mg/L
MIC, Citrobacter spp. (Citrobacter spp.): 15.63 mg/L
MIC, E. coli ATCC 25922 (E. coli ATCC 25922; ATCC 25922): 62.5 mg/L
MIC, P. aeruginosa ATCC 15442 (P. aeruginosa ATCC 15442; ATCC 15442): 125 mg/L
MIC, S. aureus ATCC 25923 (S. aureus ATCC 25923; ATCC 25923): 15.63 mg/L
antibacterial MIC range over the bacterial panel [3]: 7.81 to 62.5 mg/L
difference in killing kinetics over PEN, PISP (PISP; 2): 76.0%
difference in killing kinetics over PEN, average (PRSP, PISP, and PSSP; 2): 64.6%
CFU recovered (viability), all three groups of pneumococci (PRSP, PISP, and PSSP; 30 min post treatment, 2× MIC, 5 × 10^6 CFU/ml in CAMHB, plate count, relative to untreated control): < 6.0%
difference in killing kinetics over PEN, PRSP (PRSP; 2): 60.0%
difference in killing kinetics over PEN, PSSP (PSSP; 2): 57.7%

GLFDKWAWWRWRR-NH2 [DM1]
Overall MIC (S. pneumoniae): 31.3 to 250 mg/L
Overall EP (S. pneumoniae): 100.0%
MIC, PISP [1]: 31.3 to 125 mg/L
EP %, PISP [1]: (100.0) %
MIC, PSSP [2]: 62.5 to 250 mg/L
EP %, PSSP [2]: (100.0) %
MIC, MRSA (MRSA; Gram-positive, clinical isolate, broth microdilution, CAMHB, peptides 1.96–250 μg/ml): 62.5 mg/L
MIC, Citrobacter spp. (Citrobacter spp.): 31.3 mg/L
MIC, E. coli ATCC 25922 (E. coli ATCC 25922; [4]): 62.5 mg/L
MIC, P. aeruginosa ATCC 15442 (P. aeruginosa ATCC 15442; [4]): 125 mg/L
MIC, S. aureus ATCC 25923 (S. aureus ATCC 25923; Gram-positive, broth microdilution, CAMHB, peptides 1.96–250 μg/ml): 125 mg/L
difference in killing kinetics over PEN, PISP (PISP; 30 min post treatment, 2× MIC): 54.2%
difference in killing kinetics over PEN, average (PRSP, PISP, and PSSP; average of PRSP, PISP and PSSP, 30 min post treatment, 2× MIC): 48.5%
difference in killing kinetics over PEN, PRSP (PRSP; 30 min post treatment, 2× MIC): 52.9%
difference in killing kinetics over PEN, PSSP (PSSP; 30 min post treatment, 2× MIC): 38.4%

GLFDIWKKLRWRR-NH2 [DM5]
Overall MIC (S. pneumoniae): 15.63 to 125 mg/L
Overall EP (S. pneumoniae): 100.0%
MIC, PISP [1]: 15.63 to 125 mg/L
EP %, PISP [1]: (100.0) %
MIC, PSSP [2]: 15.63 to 125 mg/L
EP %, PSSP [2]: (100.0) %
MIC, MRSA (MRSA; methicillin-resistant): 62.5 mg/L
MIC, Citrobacter spp. (Citrobacter spp.): 31.3 mg/L
MIC, E. coli ATCC 25922 (E. coli ATCC 25922; ATCC 25922): 31.3 mg/L
MIC, P. aeruginosa ATCC 15442 (P. aeruginosa ATCC 15442; ATCC 15442): 31.3 mg/L
MIC, S. aureus ATCC 25923 (S. aureus ATCC 25923; ATCC 25923): 125 mg/L
antibacterial MIC range over the bacterial panel [3]: 31.3 to 62.5 mg/L
difference in killing kinetics over PEN, PISP (PISP; 2): 58.5%
difference in killing kinetics over PEN, average (PRSP, PISP, and PSSP; 2): 44.4%
difference in killing kinetics over PEN, PRSP (PRSP; 2): 38.1%
difference in killing kinetics over PEN, PSSP (PSSP; 2): 36.5%
